# Measured values from US20110158944A1, “BRAF BIOMARKERS” (priority 2007, published 2011).
# pIC50: −log10 of the molar value. Read-outs that look alike come from different tables or passages of the source.
# How the values were obtained:
# Test in all cases: Cell proliferation IC50 (Cell Titer Glo)
# UACC-62 = type: cell-based; conditions: Homo sapiens, read-out: IC50 cell proliferation
# Protocol: (§1) IC50 Cell proliferation measurements. Cell proliferation was assessed in the 41 tumor cell lines set forth in Table 2 after 4 days of continuous exposure to either the ERK1/2 inhibitor, compound a or the MEK inhibitor compound b (PD0325901) using Promega Cell Titer Glo reagent (Promega Corp, Madison, Wis.). Promega's CellTiter-Glo™ Luminescent Cell Viability Assay is a sensitive method for assaying cell proliferation using a stable form of luciferase to measure ATP as an indicator of viable cells. This reagent allows a homogeneous method of determining cell number by quantitation of ATP. The luciferase luminescent signal produced is proportional to the number of viable cells present in culture.
# (§2) A 1000× compound dose response curve, containing 8 dilutions of each compound, was prepared on a 96-well plate. Compounds were diluted in 100% DMSO to the following (1000×) concentrations: compound b: 1000 μM, 333 μM, 111 μM, 37 μM, 12 μM, 4.1 μM, 1.4 μM and 0.5 μM; compound a: 3000 μM, 1000 μM, 333 μM, 111 μM, 37 μM, 12 μM, 4.1 μM and 1.4 μM. This compound source plate was sealed and kept frozen between uses.
# (§3) Cells were grown in RPMI 1640 medium supplemented with 10% Fetal Bovine Serum, 2 mM Glutamine and non-essential amino acids or DMEM/F12 Media containing the same supplements. On day zero, cells were trypsinized, counted and plated into wells of a 96-well Wallac TC Isoplate (Perkin-Elmer Wallac, Gaithersburg, Md.) at a density of 1500-2000 cells per well in 50 μl of complete media. An additional 6-8 replicate well of the cells at the same density were plated on a separate Wallac TC Isoplate. This plate was developed on day 1 to determine the cell-growth baseline.
# (§4) On day 1 of treatment, compound was diluted to 2× in media and immediately added to the cells as follows: one ml of media was added to each well of a deep-well 96-well plate and 2 μl of 1000× compound was added with mixing to make 2× compound in media. 50 μl of the media containing 2× compound was added to the cell plates in duplicate points so the final concentrations for each well were as outlined in Table 1. The plates were then returned to a 37° C. incubator and left undisturbed for 4 days. The day 1 (baseline) plates were developed by first adding 50 μl media (without compound) to bring the volume in each well to 100 μl, then adding 100 μl of Cell Titer Glo reagent (as below).
# (§5) After four days of treatment, the plates were developed with Cell Titer Glo (CTG) reagent (Promega Corp.; Madison, Wis.). Reagent was reconstituted as described in the product insert. 100 μl of reagent was added to all treatment and control wells and the plates were gently shaken for 5 minutes then incubated an additional 5 minutes before reading in an Analyst AD (Molecular Devices Corporation; Sunnyvale, Calif.) using the Luminescence settings.
# (§6) Data was analyzed in Excel using XLfit 4.2, fit model #205 (Dose Response One Site)
# SK-Mel3 = type: cell-based; conditions: Homo sapiens, read-out: IC50 cell proliferation
# Protocol: as §1, §2, §3, §4, §5, §6
# Jijoye = type: cell-based; conditions: Homo sapiens, 96 h, read-out: IC50 cell proliferation
# Protocol: as §1, §2, §3, §4, §5, §6
# A204 = type: cell-based; conditions: Homo sapiens, read-out: IC50 cell proliferation
# Protocol: as §1, §2, §3, §4, §5, §6
# SNU-16 = type: cell-based; conditions: Homo sapiens, read-out: IC50 cell proliferation
# Protocol: as §1, §2, §3, §4, §5, §6
# SK-Mel-5 = type: cell-based; conditions: Homo sapiens, read-out: IC50 cell proliferation
# Protocol: as §1, §2, §3, §4, §5, §6
# Hs746T = type: cell-based; conditions: Homo sapiens, 96 h, read-out: IC50 cell proliferation
# Protocol: as §1, §2, §3, §4, §5, §6
# HT-29 = type: cell-based; conditions: Homo sapiens, read-out: IC50 cell proliferation
# Protocol: as §1, §2, §3, §4, §5, §6
# SK-Mel-1 = type: cell-based; conditions: Homo sapiens, read-out: IC50 cell proliferation
# Protocol: as §1, §2, §3, §4, §5, §6
# WM-266-4 = type: cell-based, human; conditions: 4 days continuous exposure
# Protocol: as §1, §2, §3, §4, §5, §6
Compound,"pIC50 (UACC-62; UACC-62, 96 h)","pIC50 (SK-Mel3; SK-MEL3, 96 h)",pIC50 (Jijoye),"pIC50 (A204; A204, 96 h)","pIC50 (SNU-16; SNU-16, 96 h)","pIC50 (SK-Mel-5; SK-MEL-5, 96 h)",pIC50 (Hs746T),"pIC50 (HT-29; HT-29, 96 h)","pIC50 (SK-Mel-1; SK-MEL-1, 96 h)","pIC50 (WM-266-4; Homo sapiens, WM 266-4, 96 h, read-out: IC50 cell proliferation, WM-266-4, Melanoma, BRAF V600D Heterozygous)","pIC50 (WM-266-4; read-out: IC50 cell proliferation, WM-266-4, Melanoma, BRAF V600D Heterozygous)","pIC50 (UACC-62; 96 h, UACC-62, Melanoma, BRAF V600E Homozygous, 4 days continuous exposure)","pIC50 (SK-Mel3; 96 h, SK-Mel3, Melanoma, BRAF V600E Heterozygous, 4 days continuous exposure)","pIC50 (Jijoye; Jijoye, Leukemia, BRAF V600V Wild type, 4 days continuous exposure)","pIC50 (A204; 96 h, A204, Rhabdomyosarcoma, BRAF V600V Wild type, 4 days continuous exposure)","pIC50 (SNU-16; 96 h, SNU-16, Gastric, BRAF V600V Wild type, 4 days continuous exposure)","pIC50 (SK-Mel-5; 96 h, SK-Mel-5, Melanoma, BRAF V600E Heterozygous, 4 days continuous exposure)","pIC50 (Hs746T; Gastric, BRAF V600V Wild type, 4 days continuous exposure)","pIC50 (HT-29; 96 h, HT-29, Colon, BRAF V600E Heterozygous, 4 days continuous exposure)","pIC50 (SK-Mel-1; 96 h, SK-Mel-1, Melanoma, BRAF V600E Heterozygous, 4 days continuous exposure)"
"O=C(NOC[C@H](O)CO)c1ccc(F)c(F)c1Nc1ccc(I)cc1F [cpd. b, PD0325901]",8.30,8.10,6.00,6.00,6.00,8.10,8.15,7.70,8.52,> 8.00,8.00,–,–,–,–,–,–,–,–,–
O=C(Nc1ccc2[nH]nc(-c3ccncc3)c2c1)C1CCN(CC(=O)N2CCN(c3ccc(-c4ncccn4)cc3)CC2)C1 (centres unmarked) [cpd. a],–,–,–,–,–,–,–,–,–,–,–,7.52,6.93,< 5.52,< 5.52,< 5.52,7.18,6.90,7.30,7.43
